According to paper PMC3630091, “A Mechanistic Paradigm for Broad-Spectrum Antivirals that Target Virus-Cell Fusion” (PLoS Pathogens, 2013):
Where two headings read alike, the source gives them in different places.

Columns and labels:
[1] = tested on: HeV; experiment: microbe, parasite or virus in culture; format: cell-based, Hendra virus; details: Henipavirus hendraense, 10 min, read-out: IC50 HeV
[2] = Pharmacokinetics in mice; details: for bioavailability: female, Balb/c, mouse, in vivo
[3] = Singlet oxygen quenching measurements; format: physicochemical; details: 355 nm with C60 as external sensitizer; error is one standard deviation
[4] = in vitro; details: human
[5] = Singlet oxygen quantum yield measurements; format: physicochemical
[6] = tested on: H1N1; experiment: microbe, parasite or virus in culture; format: cell-based, Influenza A A/PR/8/34 (H1N1); details: read-out: IC50 H1N1
[7] = Absorbance spectra / UV-visible spectra integration; format: physicochemical
[8] = tested on: EBOV; experiment: microbe, parasite or virus in culture; format: cell-based, Ebola Zaire; details: Zaire ebolavirus, 10 min, read-out: IC50 EBOV
[9] = tested on: RVFV ZH501; format: in vivo, Balb/c mice
[10] = Clinical observations after single dose in PK study; format: in vivo, female Balb/c mice; details: single dose 10 mg/kg ip
Protocol: Dose administration. […] These mice were replaced and the dose level was reduced to 5 mg/kg. […] Hypoactivity was the only clinical observation noted in some of the mice treated with the 3 test articles at 10 and 100 mg/kg po. […] These animals were replaced and administered with the lower ip dose level of 1.25 mg/kg and underwent blood collections. Mice received single ip doses of 1.25 mg/kg (JL109 and JL118) or 5 mg/kg (JL122) and po doses of 10 mg/kg (JL109, JL118, JL122), 50 mg/kg (JL109, JL118), or 100 mg/kg (JL109, JL118, JL122).

[11] = Membrane partition into HIV membrane-like mixture LUV (fluorescence)
[12] = tested on: HSV; experiment: microbe, parasite or virus in culture; format: cell-based, Herpes simplex virus-1; details: Human alphaherpesvirus 1, 10 min
[13] = Membrane partition into POPC LUV (fluorescence)
[14] = tested on: SFV; experiment: microbe, parasite or virus in culture; format: cell-based; details: Semliki Forest virus, BHK, 10 min, read-out: IC50 SFV
[15] = tested on: RVFV; experiment: microbe, parasite or virus in culture; format: cell-based, Rift Valley fever MP-12 (vaccine strain); details: Rift Valley fever virus, 10 min, read-out: IC50 RVFV
[16] = tested on: HIV-1JR-CSF; format: cell-based
[17] = tested on: CMV; experiment: microbe, parasite or virus in culture; format: cell-based, Cytomegalovirus (strain T3259)
[18] = tested on: VSV; experiment: microbe, parasite or virus in culture; format: cell-based; details: Vesicular stomatitis virus, 10 min, read-out: IC50 VSV
[19] = tested on: HIV; experiment: microbe, parasite or virus in culture; format: cell-based; details: Human immunodeficiency virus 1, 10 min
[20] = tested on: NDV; experiment: microbe, parasite or virus in culture; format: cell-based, Newcastle disease virus; details: avian paramyxovirus 1, 10 min
[21] = tested on: Ad5; format: cell-based, Adenovirus serotype 5; details: non-enveloped virus; 10 min white light exposure of treated virus
[22] = tested on: NiV; experiment: microbe, parasite or virus in culture; format: cell-based, Nipah virus Malaysia
[23] = tested on: RABV; experiment: microbe, parasite or virus in culture; format: cell-based; details: Lyssavirus rabies, 10 min, read-out: IC50 RABV

Which results are given for `CCN1C(=S)O/C(=C\c2ccc(-c3ccccc3OC)o2)C1=S` [JL103, (Z) 3-Ethyl-5-[5-(2-methoxyphenyl)-furan-2-ylmethylene]oxazolid-ine-2,4-dithione]?
IC50 [1]: 0.5 nM; bioavailability ([2]; ip, 10 mg/kg): ~50%; bioavailability ([2]; po, 100 mg/kg): 3.1 to 105%; improvements in relevant pharmacokinetic (PK) parameters compared to LJ001 ([2]; half-life, AUC, bioavailability, clearance): > 10 fold; kT × 10-7 [3]: 0.636 ± 0.030 M-1s-1; CC50 [4]: 9140 nM; QY at 355 nm, times higher than LJ001 ([5]; 355 nm): about 2 times; 1O2 QY 355 nm ([5]; in CD2Cl2, excitation 355 nm, error is one standard deviation): 0.36 ± 0.02; 1O2 QY 532 nm ([5]; in CD2Cl2, excitation 532 nm, error is one standard deviation): 0.30 ± 0.03; IC50 ([6]; Influenza A virus, H1N1, 10 min): 1.7 nM; IC50 [6]: 2 nM; Abs Max (λmax) ([7]; 100 µM in DMSO): 515 nm; AUC (400-750 nm) ([7]; integrated absorption divided by concentration, normalized relative to LJ001 (LJ001 = 100)): 153; total integrated absorption (AUC), times that of LJ001 ([7]; λ = 400 to 750 nm): 1.53 times; IC50 [8]: 185 nM; time-to-death / survival compared to untreated controls ([9]; 20 pfu RVFV ZH501 IP, IP once a day for 7 days from 1 h post-challenge, JL118 1.25 mg/kg, JL122 and JL103 10 mg/kg): no significant effect on survival; Median survival ([9]; 50 pfu RVFV ZH501 IP, 10 mg/kg IP at 1, 12, 24 and 48 h post-challenge, n = 5): 3 days; clinical observations [10]: appeared normal; Kp at 10 min, 50 µM [11]: 310; IL / Iw ([11]; HIV-like mixture LUV, fluorescence intensity ratio from curve fitting): 68.29; IC50 ([12]; read-out: IC50 HSV): 2 nM; IC50 ([12]; read-out: IC50 ± SD (nM) (N=x) HSV): 1.9 ± 2.5 nM; Kp at 10 min, 50 µM [13]: 580; IL / Iw ([13]; POPC LUV, fluorescence intensity ratio from curve fitting): 14.78; IC50 [14]: 44 nM; IC50 [15]: 3 nM; reduction of antiviral activity at physiological Hct [16]: > 50%; IC50 ([17]; Human betaherpesvirus 5, 10 min, read-out: IC50 CMV, 10 min white light exposure of treated virus): 5 nM; IC50 ([17]; read-out: IC50 CMV, 10 min white light exposure of treated virus): 4 nM; IC50 [18]: 11 nM; IC50 ([19]; read-out: IC50 HIV): 13 nM; IC50 ([19]; read-out: IC50 ± SD (nM) (N=x) HIV): 12.2 ± 9.7 nM; IC50 ([20]; read-out: IC50 NDV): 4 nM; IC50 ([20]; read-out: IC50 ± SD (nM) (N=x) NDV): 5.7 ± 6.4 nM; IC50 Ad5 [21]: inactive; IC50 ([22]; Henipavirus nipahense, 10 min, read-out: IC50 NiV, 10 min white light exposure of treated virus): 3.9 nM; IC50 ([22]; read-out: IC50 NiV, 10 min white light exposure of treated virus): 4 nM; IC50 [23]: 260 nM
